These results are taken from article PMC9502272, “A Metabolomics Approach for Predicting OATP1B-Type Transporter-Mediated Drug–Drug Interaction Liabilities” (Pharmaceutics, 2022).

Structures can show the parent of a compound that is named as a salt.

In the data set the target is T1, Oatp1b2 (Mus musculus, UniProt Q9JJL3).
T1 sequence (Q9JJL3 1-689): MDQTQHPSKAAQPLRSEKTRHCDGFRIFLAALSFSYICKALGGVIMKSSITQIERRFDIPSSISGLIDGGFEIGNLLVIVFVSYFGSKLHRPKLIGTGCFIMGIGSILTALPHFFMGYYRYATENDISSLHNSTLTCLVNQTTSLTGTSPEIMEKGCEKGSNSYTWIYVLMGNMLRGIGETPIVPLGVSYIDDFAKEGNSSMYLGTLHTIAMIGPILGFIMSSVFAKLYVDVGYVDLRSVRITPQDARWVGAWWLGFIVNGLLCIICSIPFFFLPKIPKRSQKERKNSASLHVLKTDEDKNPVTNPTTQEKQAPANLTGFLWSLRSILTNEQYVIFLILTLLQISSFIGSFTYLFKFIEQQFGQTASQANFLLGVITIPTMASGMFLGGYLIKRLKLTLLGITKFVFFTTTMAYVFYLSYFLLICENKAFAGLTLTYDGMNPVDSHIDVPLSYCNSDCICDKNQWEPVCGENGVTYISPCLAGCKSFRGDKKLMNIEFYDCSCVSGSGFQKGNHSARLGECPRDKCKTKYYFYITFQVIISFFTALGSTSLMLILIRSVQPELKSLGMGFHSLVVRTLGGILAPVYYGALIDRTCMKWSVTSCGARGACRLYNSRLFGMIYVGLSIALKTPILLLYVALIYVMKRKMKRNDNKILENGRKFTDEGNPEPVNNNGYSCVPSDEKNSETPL
Kind of data set: Untargeted metabolomics of plasma from untreated wild-type and Oatp1b2(−/−) mice. Conditions: for Fold of Change KO/WT: plasma of untreated Oatp1b2-deficient (KO) vs wild-type (WT) mice, semi-quantitative, positive = higher in KO, n = 6 per group; for Mean value KO: plasma of untreated Oatp1b2-deficient mice; for Mean value KO / Mean value WT: raw area counts rescaled to median = 1; for Mean value WT: plasma of untreated wild-type mice.

On to `CC(C)C(O)C(=O)O` (stereo not drawn) [alpha-hydroxyisovalerate], for which the “Fold of Change KO/WT” value is reported as 1.68, the “Mean value KO” value is 1.43 and the “Mean value WT” value is “.850”.

Turning to `C[C@H](CCC(=O)O)[C@H]1CC[C@H]2[C@@H]3[C@H](O)[C@@H](O)[C@@H]4C[C@H](O)CC[C@]4(C)[C@H]3CC[C@]12C` [alpha-muricholate], the “Fold of Change KO/WT” value was found to be 45.2, the “Mean value KO” value was 2.71 and the “Mean value WT” value is reported as “.0600”.

For the compound `CCCCC/C=C\C/C=C\C/C=C\C/C=C\CCCC(=O)O[C@H](CC(=O)[O-])C[N+](C)(C)C` [arachidonoylcarnitine (C20:4)], the “Fold of Change KO/WT” value is reported as 1.92, the “Mean value KO” value was 1.53 and the “Mean value WT” value was “.796”.

On to `CCCCCCCCCCCCCCCCCCCC(=O)OC(CC(=O)[O-])C[N+](C)(C)C` (stereo not drawn) [arachidoylcarnitine (C20)], for which the “Fold of Change KO/WT” value came to 1.36, the “Mean value KO” value came to 1.21 and the “Mean value WT” value is “.889”.

For `CC(C)(O)CC(=O)O` [beta-hydroxyisovalerate], the “Fold of Change KO/WT” value turned out to be 1.40, the “Mean value KO” value worked out at 1.17 and the “Mean value WT” value is given as “.835”.

Regarding `C[C@H](CCC(=O)O)[C@H]1CC[C@H]2[C@@H]3[C@@H](O)[C@@H](O)[C@@H]4C[C@H](O)CC[C@]4(C)[C@H]3CC[C@]12C` [beta-muricholate], the “Fold of Change KO/WT” value came to 15.2, the “Mean value KO” value stood at 2.84 and the “Mean value WT” value was “.187”.

For `C=CC1=C(C)/C(=C/c2[nH]c(Cc3[nH]c(/C=C4\NC(=O)C(C)=C4C=C)c(C)c3CCC(=O)O)c(CCC(=O)O)c2C)NC1=O` [bilirubin (E,E)], the “Fold of Change KO/WT” value is 6.12, the “Mean value KO” value is given as 1.17 and the “Mean value WT” value is recorded as “.191”.

Turning to `C=CC1=C(C)/C(=C/c2[nH]c(Cc3[nH]c(/C=C4\NC(=O)C(C)=C4C=C)c(C)c3CCC(=O)O)c(CCC(=O)O)c2C)NC1=O` [bilirubin (Z,Z)], the “Fold of Change KO/WT” value came to 5.25, the “Mean value KO” value is 1.48 and the “Mean value WT” value is recorded as “.282”.

`C=CC1=C(C)/C(=C/C2=NC(=C\c3[nH]c(/C=C4\NC(=O)C(C)=C4C=C)c(C)c3CCC(=O)O)/C(CCC(=O)O)=C2C)NC1=O` [biliverdin]: the “Fold of Change KO/WT” value is 4.09, the “Mean value KO” value is reported as 1.84 and the “Mean value WT” value is “.450”.

With `CCCC(=O)NCC(=O)O` [butyrylglycine], the “Fold of Change KO/WT” value amounted to 1.72, the “Mean value KO” value was 1.28 and the “Mean value WT” value is recorded as “.744”.

Consider `C[C@H](CCC(=O)O)[C@H]1CC[C@H]2[C@@H]3[C@H](O)C[C@@H]4C[C@H](O)CC[C@]4(C)[C@H]3CC[C@]12C` [chenodeoxycholate], for which the “Fold of Change KO/WT” value came to 3.57, the “Mean value KO” value stood at 2.09 and the “Mean value WT” value is on record as “.585”.

On to `CC(C)CCC[C@@H](C)[C@H]1CC[C@H]2[C@@H]3CC=C4C[C@@H](OS(=O)(=O)O)CC[C@]4(C)[C@H]3CC[C@]12C` [cholesterol sulfate], for which the “Fold of Change KO/WT” value turned out to be 1.23, the “Mean value KO” value stood at 1.08 and the “Mean value WT” value was “.875”.

For `O=C(O)CNC(=O)/C=C/c1ccccc1` [cinnamoylglycine], the “Fold of Change KO/WT” value was determined as 1.99, the “Mean value KO” value is listed as 1.54 and the “Mean value WT” value was “.776”.

With `C[C@H](CCC(=O)O)[C@H]1CC[C@H]2[C@@H]3CC[C@@H]4C[C@H](O)CC[C@]4(C)[C@H]3C[C@H](OS(=O)(=O)O)[C@]12C` [deoxycholic acid 12-sulfate], the “Fold of Change KO/WT” value was found to be 1.25, the “Mean value KO” value is 1.06 and the “Mean value WT” value is “.851”.

For `CCCCC/C=C\C/C=C\CCCCCCCCCC(=O)OC(CC(=O)[O-])C[N+](C)(C)C` (stereo not drawn) [dihomo-linoleoylcarnitine (C20:2)], the “Fold of Change KO/WT” value is on record as 1.75, the “Mean value KO” value amounted to 1.37 and the “Mean value WT” value is on record as “.785”.

In the case of `O=C(O)CCCCCCCCCCC(=O)O` [dodecanedioate (C12-DC)], the “Fold of Change KO/WT” value is given as 8.12, the “Mean value KO” value was 2.97 and the “Mean value WT” value is “.366”.

On to `OC[C@@H](O)[C@@H](O)CO` [erythritol], for which the “Fold of Change KO/WT” value was determined as 1.31, the “Mean value KO” value is recorded as 1.22 and the “Mean value WT” value is “.927”.

In the case of `CCO[C@@H]1O[C@H](CO)[C@@H](O)[C@H](O)[C@H]1O` [ethyl beta-glucopyranoside], the “Fold of Change KO/WT” value is recorded as 1.41, the “Mean value KO” value was determined as 1.17 and the “Mean value WT” value is “.826”.

In the case of `N[C@@H](CCC(=O)NCC(=O)O)C(=O)O` [gamma-glutamylglycine], the “Fold of Change KO/WT” value amounted to 1.23, the “Mean value KO” value came out at 1.17 and the “Mean value WT” value is recorded as “.950”.

Consider `NCCOP(=O)(O)OCC(O)CO` (stereo not drawn) [glycerophosphoethanolamine], for which the “Fold of Change KO/WT” value is on record as 1.57, the “Mean value KO” value was 1.31 and the “Mean value WT” value was “.831”.

Consider `C[N+](C)(C)CCOP(=O)([O-])OC[C@H](O)CO` [glycerophosphorylcholine (GPC)], for which the “Fold of Change KO/WT” value turned out to be 1.34, the “Mean value KO” value came out at 1.12 and the “Mean value WT” value was “.836”.

For the compound `O=C(O)CCCCCCCCCCCCCCCC(=O)O` [heptadecanedioate (C17-DC)], the “Fold of Change KO/WT” value is 1.66, the “Mean value KO” value is listed as 1.36 and the “Mean value WT” value is listed as “.818”.

As for `CCCCCCC(=O)NCC(=O)O` [heptanoyl glycine], the “Fold of Change KO/WT” value is on record as 1.52, the “Mean value KO” value was 1.32 and the “Mean value WT” value is on record as “.868”.

As to `O=C(O)CCCCCCCCCCCCCCC(=O)O` [hexadecanedioate (C16-DC)], the “Fold of Change KO/WT” value stood at 2.10, the “Mean value KO” value amounted to 1.57 and the “Mean value WT” value was “.749”.

In the case of `CCCCCC(=O)NCC(=O)O` [hexanoylglycine], the “Fold of Change KO/WT” value came out at 1.59, the “Mean value KO” value came to 1.40 and the “Mean value WT” value was “.880”.

On to `C[N+]1(C)CCCC[C@H]1C(=O)[O-]` [homostachydrine], for which the “Fold of Change KO/WT” value was found to be 1.19, the “Mean value KO” value is on record as 1.09 and the “Mean value WT” value was “.915”.

Take `O=S(=O)(O)Oc1ccc(O)cc1` [hydroquinone sulfate]: the “Fold of Change KO/WT” value worked out at 1.55, the “Mean value KO” value stood at 1.32 and the “Mean value WT” value was “.849”.

Take `C[C@H](CCC(=O)O)[C@H]1CC[C@H]2[C@@H]3[C@H](O)[C@H](O)[C@@H]4C[C@H](O)CC[C@]4(C)[C@H]3CC[C@]12C` [hyocholate]: the “Fold of Change KO/WT” value is 5.64, the “Mean value KO” value is given as 1.41 and the “Mean value WT” value is “.251”.

`C[C@H](CCC(=O)O)[C@H]1CC[C@H]2[C@@H]3C[C@H](O)[C@@H]4C[C@H](O)CC[C@]4(C)[C@H]3CC[C@]12C` [hyodeoxycholate]: the “Fold of Change KO/WT” value is 14.7, the “Mean value KO” value was 3.94 and the “Mean value WT” value was “.269”.

Take `NCCS(=O)O` [hypotaurine]: the “Fold of Change KO/WT” value came out at 1.28, the “Mean value KO” value stood at 1.14 and the “Mean value WT” value is reported as “.887”.
